Reference: publication PMC6642116, “Structural and functional analyses of hepatitis B virus X protein BH3-like domain and Bcl-xL interaction” (Nature Communications, 2019)

Legend:
[1] = tested on: caspase-3 (CASP3); test: Caspase-3 proteolytic activation in HepG2.2.15 cells (immunoblot); format: cell-based; conditions: HepG2.2.15, 2 days
Description: (§1) Fig. 6 The HBx-aa118–127 peptide, but not ABT-263, inhibits HBV replication and transcription in HepG2.2.15 cells. a HepG2.2.15 cells were treated with 125, 250, 500, and 1000 nM of ABT-263 for 2 days. Cytoplasmic HBV viral particles were isolated and the viral DNA replication intermediates were quantified (Methods). The results represent the fold change of the replicative intermediates in HepG2.2.15 cells from the indicated treatments, compared with those without treatment. b HepG2.2.15 cells were treated with the indicated concentrations of ABT-263 for 2 days. The lysate was analyzed by immunoblotting using antibodies to caspase-3 (CASP3) and GAPDH (glyceraldehyde 3-phosphate dehydrogenase). c, d The HBx-aa113–135, HBx-aa118–127, or the control peptides were delivered into HepG2.2.15 cells using PEP-1 nanoparticles (Methods). The levels of HBV DNA (c) and the levels of HBV S-antigen (HBsAg) expression (d) in culture medium collected from HepG2.2.15 cells were measured (Methods). The results are shown as fold change compared to that of the control peptide. e–g HepG2-NTCP cells were transfected with HBx118–127 peptide with concentration of […], and 50 μg/ml or unrelated control peptide during HBV infection (multiplicity of infection (MOI) = 200), respectively. e HBV e-antigen (HBeAg), f HBV DNA, and g cell viability were measured at day 8 after HBV infection. […]

[2] = tested on: HBV DNA in HepG2.2.15 cells; test: HBV DNA replication in HepG2.2.15 cells treated with ABT-263 or ABT-737; format: cell-based; conditions: for HBV DNA: 2 days; for inhibition of HBV DNA replication (in words): 125-1000 nM, 48 h
Description: as §1, with “infection. Data shown represent mean ± SD. Significance is indicated on the top. Not significant (ns): *P < 0.05, **P < 0.01; two-tailed unpaired t tests (n = 3 biologically independent samples). Source data are provided as a Source Data file” for “infection.”
ABT-263 and ABT-737, the picomolar BH3 mimetics, were purchased from Apexbt Technology LLC (Houston, TX, USA). HepG2.2.15 cells were treated with 125, 250, 500, and 1000 nM of ABT-263 or ABT-737 for 48 h. Cytoplasmic HBV viral particles and HBV DNA were then isolated for quantification.
ABT-263 or ABT-737 for two days. Cytoplasmic HBV viral particles were isolated and the viral DNA replication intermediates were quantified by real-time PCR using a specific primer set targeting HBS ORF (Materials and Methods). The results represent the fold change of the replicative intermediates in HepG2.2.15 cells from the indicated treatments, compared with those without treatment. b HepG2.2.15 cells were treated with the indicated concentrations of ABT-263 or ABT-737 for two days. The lysate was analyzed by immunoblotting using antibodies to Caspase-3 (CASP3) and GAPDH.
Data shown represent mean ± SD. Significance is indicated on the top. Not significant (ns): P > 0.05; two-tailed unpaired t-tests. Source data are provided as a Source Data […]
(1 picture or pasted object on this page, not shown here)

[3] = tested on: HBV in HepG2.2.15 cells; test: Combination of HBx118–127 and ABT-263 on HBV in HepG2.2.15 cells; format: cell-based; conditions: ABT-263 1 μM, HBx118–127 via PEP-1; for HBV DNA: HepG2.2.15 culture medium, 48 h in total; for HBV DNA / HBeAg in culture medium / HBsAg in culture medium / Intracellular HBcAg: sequential: ABT-263 12 h then HBx118–127 36 h; for HBeAg in culture medium / HBsAg in culture medium / Intracellular HBcAg: HepG2.2.15, 48 h in total
Description: In all panels, from left to right (bars 1–5), cells were treated with placebo buffer, HBx118–127 only, ABT-263 only, HBx118–127 and ABT-263 together, and ABT-263, followed by HBx118–127, respectively. The cells in bars 1–4 were treated for 48 h, whereas the cells in bar 5 were first treated by ABT-263 for 12 h, followed by treatment with HBx118–127 for another 36 h. The final concentration of ABT-263 was 1 μM in the culture medium, while HBx-aa118–127 was delivered by PEP-1 nanoparticles. After 48-h treatment, the protein expression levels of HBV S-antigen (HBsAg) (a) and HBV e-antigen (HBeAg) (b) in the culture medium, the intracellular protein expression level of HBV core antigen (HBcAg) (c), and the HBV viral DNA tilter (d) in the culture medium of HepG2.2.15 cells were measured (Methods). The results are shown as fold changes compared to the values obtained from the cells treated with the placebo buffer. Data shown represent mean ± SD. Significance is indicated on the top. Not significant (ns): *P < 0.05, **P < 0.01, ***P < 0.001; two-tailed unpaired t tests (n = 3 biologically independent samples). Source data are provided as a Source Data file
The levels of HBsAg, HBeAg, and HBcAg expression were measured by chemiluminescence, using Commercial Assay Kit (Wantai, Beijing, China). Northern blot analysis of HBV RNA, Southern blot analysis of HBV DNA, and real-time PCR quantification of HBV DNA are described in the Supplementary Methods.

[4] = molecular target: T1, Bcl-xL (Homo sapiens, UniProt Q07817, DEL27-82); conditions: cited from earlier work
T1 construct: 6xHis-SUMO (N, cleaved yes); made in house; host or cells: Escherichia coli BL21(DE3)
T1 sequence (Q07817 with tags, fused parts or gaps DEL27-82 limits assumed): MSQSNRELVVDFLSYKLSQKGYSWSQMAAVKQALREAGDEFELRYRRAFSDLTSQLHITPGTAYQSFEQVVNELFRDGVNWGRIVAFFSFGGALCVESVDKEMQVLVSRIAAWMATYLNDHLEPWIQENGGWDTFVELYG

Compound | proteolytic activation of caspase-3 (in words) [1] | HBV DNA ([2]; 125 nM, replicate 1) | HBV DNA ([2]; 125 nM, replicate 2) | HBV DNA ([2]; 125 nM, replicate 3) | HBV DNA ([2]; 250 nM, replicate 1) | HBV DNA ([2]; 250 nM, replicate 2) | HBV DNA ([2]; 250 nM, replicate 3) | HBV DNA ([2]; 500 nM, replicate 1) | HBV DNA ([2]; 500 nM, replicate 2) | HBV DNA ([2]; 500 nM, replicate 3) | HBV DNA ([2]; 1000 nM, replicate 1) | HBV DNA ([2]; 1000 nM, replicate 2) | HBV DNA ([2]; 1000 nM, replicate 3) | inhibition of HBV DNA replication (in words) [2] | reported Bcl-xL inhibitor potency (in words) [4] | other results
CC1(C)CCC(c2ccc(Cl)cc2)=C(CN2CCN(c3ccc(C(=O)NS(=O)(=O)c4ccc(N[C@H](CCN5CCOCC5)CSc5ccccc5)c(S(=O)(=O)C(F)(F)F)c4)cc3)CC2)C1 [ABT-263] | induced significant proteolytic activation of caspase-3 | 0.966 fold change to non-treatment | 1.035 fold change to non-treatment | 1.028 fold change to non-treatment | 1.021 fold change to non-treatment | 0.966 fold change to non-treatment | 0.946 fold change to non-treatment | 1.021 fold change to non-treatment | 0.973 fold change to non-treatment | 0.966 fold change to non-treatment | 1.000 fold change to non-treatment | 0.940 fold change to non-treatment | 0.940 fold change to non-treatment | did not inhibit HBV DNA replication | picomolar | HBV DNA ([3]; replicate 1): 1.089 fold-change to control; HBV DNA ([3]; replicate 2): 1.052 fold-change to control; HBV DNA ([3]; replicate 3): 0.924 fold-change to control; HBeAg in culture medium ([3]; replicate 1): 1.047 fold-change to control; HBsAg in culture medium ([3]; replicate 1): 0.956 fold-change to control; Intracellular HBcAg ([3]; replicate 1): 0.979 fold-change to control; HBeAg in culture medium ([3]; replicate 2): 0.911 fold-change to control; HBsAg in culture medium ([3]; replicate 2): 0.938 fold-change to control; Intracellular HBcAg ([3]; replicate 2): 0.909 fold-change to control; HBeAg in culture medium ([3]; replicate 3): 0.937 fold-change to control; HBsAg in culture medium ([3]; replicate 3): 0.832 fold-change to control; Intracellular HBcAg ([3]; replicate 3): 0.921 fold-change to control; effect on HBV replication (in words) ([3]; HepG2.2.15): did not affect HBV replication
CN(C)CC[C@H](CSc1ccccc1)Nc1ccc(S(=O)(=O)NC(=O)c2ccc(N3CCN(Cc4ccccc4-c4ccc(Cl)cc4)CC3)cc2)cc1[N+](=O)[O-] [ABT-737] | induced significant proteolytic activation of caspase-3 | 1.000 fold change to non-treatment | 0.986 fold change to non-treatment | 0.979 fold change to non-treatment | 1.110 fold change to non-treatment | 1.035 fold change to non-treatment | 1.007 fold change to non-treatment | 0.953 fold change to non-treatment | 1.000 fold change to non-treatment | 1.021 fold change to non-treatment | 0.993 fold change to non-treatment | 1.021 fold change to non-treatment | 1.021 fold change to non-treatment | did not inhibit HBV DNA replication | picomolar | 
